System: K24384-001-R-PDC complex spheroid growth
Assay: Anticancer human tumor K24384-001-R-PDC patient-derived pancreatic adenocarcinoma cell line growth inhibition [AhR]
Details: for IC50: curve of first compound; for viability, T/C: stronger effect = lower value; active = viability on the fitted dose curve at most 10% of control; inactive = the rest
Description: Multicellular complex tumor spheroid response to aryl hydrocarbon receptor antagonists in combination with a variety of drugs and investigational agents in selected tumor cell lines
The current study was undertaken to assess response to aryl hydrocarbon receptor antagonists in combination with standard-of-care drugs and investigational agents in solid tumor complex spheroid models. Complex spheroids include a stromal component modeled by human endothelial cells (HUVEC) and fibroblasts modeled by human mesenchymal stem cells (MSCs). The concentration ranges selected for each drug and investigational agent were based upon clinically achievable concentrations if the clinical Cmax of the agent was known.
Compounds. The drugs and investigational agents: BAY 2416964 (NSC825713), GNF351 (NSC835774), CH-223191 (NSC835775), CPI-455 (NSC825282), aza-TdCyd (NSC777586), decitabine (NSC127716), belinostat (NSC758774), entinostat (NSC756642), pevonedistat (NSC761192), tazemetostat (NSC777109), talazoparib (NSC765396), olaparib (NSC753686), selinexor (NSC780203), nedisertib (M3814, NSC802822), bortezomib (NSC756655), venetoclax (NSC766270), doxorubicin (NSC123127), elimusertib (BAY189344, NSC800525), ceralasertib (AZD6738, NSC777638), TAK-243 (NSC785004), alisertib (NSC759677), etoposide (NSC141540), topotecan (NSC609699), eribulin (NSC707389), gemcitabine (NSC613327), carboplatin (NSC241240), cisplatin (NSC119875), and SN-38 (NSC673596) were obtained from the National Cancer Institute (NCI) Developmental Therapeutics Program Chemical Repository (32). The FDA-approved anticancer drug set is available from the Developmental Therapeutics Program at https://dtp.cancer.gov/organization/dscb/obtaining/available plates.htm. […] The stock solutions were prepared in dimethyl sulfoxide (DMSO, Sigma-Aldrich, St. Louis, MO, cat. D2650), except for the platinum compounds which were prepared in saline (Quality Biological, Gaithersburg, MD, cat. 114-055-101), at 800-fold the tested concentration and stored at -70 degrees C prior to their use. All drugs and investigational agents were tested over a range starting from a high concentration at or near the clinical Cmax and decreasing in half-log increments. If the clinical Cmax for an agent had not been determined, the highest concentration tested was 10 microM (Table 1).
Cell Culture. All cells were maintained in an incubator at 37 degrees C and 5% CO2 with 95% humidity. The PDC lines were cultured according to standard operating procedures established by the NCI PDMR (https://pdmr.cancer.gov). Briefly, all PDCs were thawed and cultured in Matrigel-coated flasks prepared with a working solution of 1X Ham's F-12 nutrient mix, without supplementation (Invitrogen, Waltham, MA, cat. 11765054), 100 U/mL penicillin-streptomycin (Invitrogen, cat. 15140122), and 2.5% Matrigel (Corning Inc., Corning, NY, cat. 354248) for the first three passages. All PDCs were cultured in complete DMEM/F-12 media containing advanced DMEM/F-12 (Invitrogen, cat. 12634028), 4.9% defined fetal bovine serum, heat inactivated (HyClone Laboratories Inc., Logan, UT, cat. SH30070.03HI), 389 ng/mL hydrocortisone (Sigma-Aldrich, cat. H4001), 9.7 ng/mL human EGF recombinant protein (Invitrogen, cat. PHG0313), 23.4 microg/mL adenine (Sigma-Aldrich, cat. A2786), 97.3 U/mL penicillin-streptomycin (Invitrogen, cat. 15140122), 1.9 mM L-glutamine (Invitrogen, cat. 25030081), and 9.7 microM Y-27632 dihydrochloride (Tocris Bioscience, Bristol, United Kingdom, cat. 1254). The PDCs were cultured in complete DMEM/F12 media without 10 microM Y-27632 dihydrochloride for at least two passages prior to the screen. The established cell lines NCI-H1341 and […] were cultured in DMEM/F-12, HEPES (Invitrogen, cat. 11330032), 5% defined fetal bovine serum (HyClone Laboratories Inc., cat. SH30070.03), ITS premix universal culture supplement [insulin (5 microg/mL), transferrin (5 microg/mL), and selenious acid (5 ng/mL)] […]

[1] = second compound 0.1 µM, first compound 0.00316 µM
[2] = second compound 0.1 µM, first compound 0.01 µM
[3] = second compound 0.1 µM, first compound 0.0316 µM
[4] = second compound 0.1 µM, first compound 0.1 µM
[5] = second compound 0.316 µM, first compound 0.00316 µM
[6] = second compound 0.316 µM, first compound 0.01 µM
[7] = second compound 0.316 µM, first compound 0.0316 µM
[8] = second compound 0.316 µM, first compound 0.1 µM
[9] = second compound 1 µM, first compound 0.00316 µM
[10] = second compound 1 µM, first compound 0.01 µM
[11] = second compound 1 µM, first compound 0.0316 µM
[12] = second compound 1 µM, first compound 0.1 µM
[13] = second compound 3.16 µM, first compound 0.00316 µM
[14] = second compound 3.16 µM, first compound 0.01 µM
[15] = second compound 3.16 µM, first compound 0.0316 µM
[16] = second compound 3.16 µM, first compound 0.1 µM
[17] = second compound 10 µM, first compound 0.00316 µM
[18] = second compound 10 µM, first compound 0.01 µM
[19] = second compound 10 µM, first compound 0.0316 µM
[20] = second compound 10 µM, first compound 0.1 µM
[21] = second compound 0.1 µM, first compound 0.316 µM
[22] = second compound 0.1 µM, first compound 1 µM
[23] = second compound 0.1 µM, first compound 3.16 µM
[24] = second compound 0.1 µM, first compound 10 µM
[25] = second compound 0.316 µM, first compound 0.316 µM
[26] = second compound 0.316 µM, first compound 1 µM
[27] = second compound 0.316 µM, first compound 3.16 µM
[28] = second compound 0.316 µM, first compound 10 µM
[29] = second compound 1 µM, first compound 0.316 µM
[30] = second compound 1 µM, first compound 1 µM
[31] = second compound 1 µM, first compound 3.16 µM
[32] = second compound 1 µM, first compound 10 µM
[33] = second compound 3.16 µM, first compound 0.316 µM
[34] = second compound 3.16 µM, first compound 1 µM
[35] = second compound 3.16 µM, first compound 3.16 µM
[36] = second compound 3.16 µM, first compound 10 µM
[37] = second compound 10 µM, first compound 0.316 µM
[38] = second compound 10 µM, first compound 1 µM
[39] = second compound 10 µM, first compound 3.16 µM
[40] = second compound 10 µM, first compound 10 µM
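For viability, T/C in this document: percent of DMSO vehicle-treated spheroid viability set as 100%.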

CC[C@@]1(O)C(=O)OCc2c1cc1n(c2=O)Cc2cc3c(CN(C)C)c(O)ccc3nc2-1 + CC(CO)NC(=O)c1cc(-c2ccc(Cl)cc2)nn(-c2cnn(C)c2)c1=O
76.3 nM: IC50 (second compound 0.1 µM)
31.7 nM: IC50 (second compound 1 µM)
inactive: viability, T/C (second compound 0.1 µM, first compound 0.000316 µM) 103% | viability, T/C (second compound 0.1 µM, first compound 0.001 µM) 101% | viability, T/C [1] 100% | viability, T/C [2] 87.7% | viability, T/C [3] 64% | viability, T/C [4] 45.7% | viability, T/C (second compound 0.316 µM, first compound 0.000316 µM) 93.4% | viability, T/C (second compound 0.316 µM, first compound 0.001 µM) 111% | viability, T/C [5] 99% | viability, T/C [6] 84.2% | viability, T/C [7] 54.7% | viability, T/C [8] 42.2% | viability, T/C (second compound 1 µM, first compound 0.000316 µM) 94.2% | viability, T/C (second compound 1 µM, first compound 0.001 µM) 120% | viability, T/C [9] 104% | viability, T/C [10] 71.2% | viability, T/C [11] 57.3% | viability, T/C [12] 39.8% | viability, T/C (second compound 3.16 µM, first compound 0.000316 µM) 114% | viability, T/C (second compound 3.16 µM, first compound 0.001 µM) 103% | viability, T/C [13] 90.9% | viability, T/C [14] 71.8% | viability, T/C [15] 53.5% | viability, T/C [16] 39.1% | viability, T/C (second compound 10 µM, first compound 0.000316 µM) 87.6% | viability, T/C (second compound 10 µM, first compound 0.001 µM) 81.9% | viability, T/C [17] 100% | viability, T/C [18] 67.3% | viability, T/C [19] 52% | viability, T/C [20] 49.8%
42 nM: IC50 (second compound 3.16 µM)
> 100 nM: IC50 (second compound 10 µM)
47.9 nM: IC50 (second compound 0.316 µM)

COc1cc(C2c3cc4c(cc3C(OC3OC5COC(C)OC5C(O)C3O)C3COC(=O)C23)OCO4)cc(OC)c1O (stereo not given) + CC(CO)NC(=O)c1cc(-c2ccc(Cl)cc2)nn(-c2cnn(C)c2)c1=O
921 nM: IC50 (second compound 0.316 µM)
1170 nM: IC50 (second compound 1 µM)
1710 nM: IC50 (second compound 0.1 µM)
611 nM: IC50 (second compound 10 µM)
inactive: viability, T/C [3] 96.8% | viability, T/C [4] 102% | viability, T/C [21] 75.9% | viability, T/C [22] 60.8% | viability, T/C [23] 39.8% | viability, T/C [24] 33.5% | viability, T/C [7] 89.5% | viability, T/C [8] 93.4% | viability, T/C [25] 78.1% | viability, T/C [26] 48.4% | viability, T/C [27] 30% | viability, T/C [28] 28.5% | viability, T/C [11] 95.9% | viability, T/C [12] 96.4% | viability, T/C [29] 78.1% | viability, T/C [30] 52.7% | viability, T/C [31] 36% | viability, T/C [32] 30.8% | viability, T/C [15] 74.6% | viability, T/C [16] 82.4% | viability, T/C [33] 80.4% | viability, T/C [34] 41.2% | viability, T/C [35] 33.4% | viability, T/C [36] 29.6% | viability, T/C [19] 70.8% | viability, T/C [20] 72.9% | viability, T/C [37] 57.2% | viability, T/C [38] 44.7% | viability, T/C [39] 34.1% | viability, T/C [40] 33.7%
764 nM: IC50 (second compound 3.16 µM)

COc1cccc2c1C(=O)c1c(O)c3c(c(O)c1C2=O)CC(O)(C(=O)CO)CC3OC1CC(N)C(O)C(C)O1 (stereo not given) + CC(CO)NC(=O)c1cc(-c2ccc(Cl)cc2)nn(-c2cnn(C)c2)c1=O
active: viability, T/C [23] 2.41% | viability, T/C [24] 9.56% | viability, T/C [26] 5.23% | viability, T/C [27] 3.01% | viability, T/C [28] 8.52% | viability, T/C [30] 5.55% | viability, T/C [31] 2.67% | viability, T/C [32] 9.64% | viability, T/C [34] 4.46% | viability, T/C [35] 3.77% | viability, T/C [36] 8.98% | viability, T/C [38] 2.07% | viability, T/C [39] 3.16% | viability, T/C [40] 10.2%
83.2 nM: IC50 (second compound 0.316 µM)
inactive: viability, T/C [3] 60.8% | viability, T/C [4] 45.7% | viability, T/C [21] 26.5% | viability, T/C [22] 8.5% | viability, T/C [7] 62% | viability, T/C [8] 46.9% | viability, T/C [25] 22.6% | viability, T/C [11] 64.4% | viability, T/C [12] 43% | viability, T/C [29] 22.3% | viability, T/C [15] 58.1% | viability, T/C [16] 44.5% | viability, T/C [33] 24.4% | viability, T/C [19] 52.8% | viability, T/C [20] 46.4% | viability, T/C [37] 17.9%
52.4 nM: IC50 (second compound 10 µM)
78 nM: IC50 (second compound 0.1 µM)
71.2 nM: IC50 (second compound 1 µM)
67.7 nM: IC50 (second compound 3.16 µM)

Nc1ncn(C2CC(O)C(CO)O2)c(=O)n1 (stereo not given) + CC(CO)NC(=O)c1cc(-c2ccc(Cl)cc2)nn(-c2cnn(C)c2)c1=O
> 1000 nM: IC50 (second compound 0.1 µM) | IC50 (second compound 0.316 µM) | IC50 (second compound 1 µM) | IC50 (second compound 3.16 µM) | IC50 (second compound 10 µM)
inactive: viability, T/C [1] 110% | viability, T/C [2] 116% | viability, T/C [3] 109% | viability, T/C [4] 65.8% | viability, T/C [21] 87.7% | viability, T/C [22] 67.5% | viability, T/C [5] 105% | viability, T/C [6] 111% | viability, T/C [7] 109% | viability, T/C [8] 76.2% | viability, T/C [25] 69.9% | viability, T/C [26] 63.8% | viability, T/C [9] 98.2% | viability, T/C [10] 93.4% | viability, T/C [11] 112% | viability, T/C [12] 95.8% | viability, T/C [29] 75.4% | viability, T/C [30] 62.8% | viability, T/C [13] 74.3% | viability, T/C [14] 102% | viability, T/C [15] 81.3% | viability, T/C [16] 67.9% | viability, T/C [33] 59.2% | viability, T/C [34] 57.3% | viability, T/C [17] 80.4% | viability, T/C [18] 83.1% | viability, T/C [19] 79.3% | viability, T/C [20] 67.1% | viability, T/C [37] 58.2% | viability, T/C [38] 63.2%

Reference: PubChem BioAssay AID1919009 (Molecular Pharmacology Branch, DTP, NCI, 2023)
